Patent US20260337125A1, “RADIOLABELED TYROSINE DERIVATIVE AND APPLICATION THEREOF” (Osaka University, priority 2022, published 2026)

Tests used:
[1] = TLC analysis of stability after purification; format: physicochemical; details: 24 hours after purification, in sodium ascorbate aqueous solution (final concentration 1%)
Method: The crude product solution (1 μL) was analyzed by thin-layer chromatography (TLC). The sample was spotted on a thin-layer plate (silica gel 60F254), and a mixed solvent of acetonitrile/water (2/1) was used as a developing solvent. The thin-layer plate was exposed to an imaging plate (BAS IP MS 2025E, GE Healthcare) for about 15 min, and then analyzed by a bioimage analyzer (Tyhoon™ FLA-7000, Cytiva). The results are shown in FIG. 2. ^211At-AAMT-OMe in the crude product solution was detected at Rf 0.80, and the radiochemical yield (RCY) was 81.3%.
(§1) The crude product solution was injected into an HLB column (Oasis, WAT-186005125) equilibrated with sterile distilled water (1 mL) to capture the target product in the cartridge, and sterile distilled water was passed through the cartridge to elute impurities. Next, 30% ethanol solution (500 μL) was passed through the cartridge to elute the target product into sodium ascorbate aqueous solution (500 μL, final concentration 1%), thus obtaining the purified product. The radiochemical yield and radiochemical purity of the purified product were 81% and 98%, respectively.
Before purification, immediately after production, 3 hours after production, and 24 hours after production, ^211At-AAMT-OMe was analyzed by thin-layer chromatography (TLC) in the same manner as described above.
as §1, with “product. This purified product was analyzed by thin-layer chromatography (TLC) in the same manner as described above.” for “product.”, “79.6%” for “81%”, “99.9%,” for “98%,”
24 hours after production, (R)-^211At-AAMT-OMe was analyzed by thin-layer chromatography (TLC) in the same manner as described above.
as §1, with “product. This purified product was analyzed by thin-layer chromatography (TLC) in the same manner as described above.” for “product.”, “75.9%” for “81%”, “99.27%,” for “98%,”
24 hours after production, ^211At-AAMT-OEt was analyzed by thin-layer chromatography (TLC) in the same manner as described above.
The crude product solution was injected into an HLB column (Oasis, WAT-186005125) equilibrated with sterile distilled water (1 mL) to capture the target product in the cartridge, and sterile distilled water was passed through the cartridge to elute impurities. […] This purified product was analyzed by thin-layer chromatography (TLC) in the same manner as described above. […]
24 hours after production, ^211At-AAMT-OPr was analyzed by thin-layer chromatography (TLC) in the same manner as described above. […]

HEK293-hLAT1 = HEK293-hLAT1 (Homo sapiens, UniProt Q01650); experiment: Cellular uptake test (Using HEK293); format: cell-based; details: inhibitor added 15 minutes before; BCH 20 mM or unlabeled AMT 1 μg/mL
Method: • Cells to be Used: HEK293-Mock, HEK293-hLAT1, HEK293-hLAT2 (HEK293: Human Embryonic Kidney cells 293) • Culture medium to be used: E-MEM (containing 10% FBS, 1% P/S, 1% NEAA)
(§2) Two days before a test day, a cell suspension was prepared in such a manner that the concentration of predetermined cells was 1×10^5 cells/mL. The cell suspension was seeded in a 24-well multiculture plate at a volume of 0.5 mL per well. On the day of the test, cultures were confirmed to be subconfluent (which refers to a state where 70-80% of the well is covered in density). The cells were washed twice with warmed PBS(-) Buffer (166-23555, FUJIFILM Wako Pure Chemical Corporation), the culture medium was replaced with HBSS(-) Buffer (085-09355, FUJIFILM Wako Pure Chemical Corporation), and the plate was left to stand in an incubator (MINIcell-35, WakenBtech Co., Ltd) until an RI addition test.
(§3) ^211At-AAMT-OMe or ^211At-AAMT was added to the prepared cells at 10 μL/well. BCH (LAT1 inhibitor, 20 mM) or unlabeled AMT (α-methyl tyrosine, 1 μg/mL) was previously (15 minutes before) added ([…]). The cells were cultured (CO2 5%, 37 °C), and after 30 minutes, the liquid was removed by suction using an aspirator. The cells were washed twice with PBS(-). The cells were lysed by adding 0.1N NaOH to obtain a lysate, and the radioactivity of the lysate was measured using a γ counter. After the radioactivity measurement, the lysate was loaded into a 96-well plate at a volume of 10 μL per well, the protein amount was measured by the BCA method, and the number of cells was corrected based on the protein amount. Absorbance was measured by MultiScanFC (Thermo Fisher). The uptake level of ^211At-AAMT-OMe or ^211At-AAMT into the cells (number of radioactivity counts/protein amount) was calculated.

[2] = tested on: CDDP-resistant A549 (A549 CDDP-r); experiment: Cell viability of CDDP-resistant A549 (A549 CDDP-r) with CDDP; format: cell-based, human; details: CDDP 100 μg/mL
Method: Cisplatin (CDDP) was added to a human lung cancer cell line, A549 at an initial concentration of 1 μg/mL. After 3 days, dead cells were removed, and CDDP was again added. Cells that grew like A549 even in the presence of CDDP were isolated and maintained for 3 months while gradually increasing the concentration of CDDP in a culture medium.

[3] = Measurement of accumulated amounts of 211At-labeled compounds in PANC1 tumor-bearing mice; format: in vivo, human (PANC1) in Balb/c-nu/nu mice; details: tumor, iv, 0.1 MBq/animal, 0.1 MBq/0.2 mL per mouse, tail vein, read-out: tumor accumulation; for tissue uptake at 10 min: 10 minutes after administration; for tissue uptake at 1 h: 1 hour after administration
Method: (§4) Radiation doses before and after the administration were measured, and a difference between them was defined as an injected dose (ID). Ten minutes and one hour after administration, the mice were anesthetized by isoflurane inhalation, the tumors were isolated by autopsy in chronological order, and their radiation doses and weights were measured using a gamma counter (2480 Wizard^2, PerkinElmer) and a semimicro scale (Shimadzu Corporation, readability 10 μg), respectively. For comparison between accumulated amounts, accumulated amounts per unit amount (% ID/g) were calculated.
(§5) In Table 1, the amounts of the ^211At-labeled compounds accumulated in tumors of the PANC1 tumor-bearing models (% ID/g) are shown. It should be noted that in Table 1, “OMe” is ^211At-AAMT-OMe, “OEt” is ^211At-AAMT-OEt, “OPr” is ^211At-AAMT-OPr, and “OH” is ^211At-AAMT.

PANC1 tumor = experiment: as above; format: in vivo, human (PANC1) in Balb/c-nu/nu mice; details: for accumulation in the tumor sites compared to 211At-AAMT: 10 minutes and 1 hour after administration, tail vein; for retention at tumor sites: compared to 211At-AAMT
Method: as §4, §5

PANC1 = experiment: Cellular uptake test (Using PANC1); format: cell-based, human; details: for uptake speed: PANC1 cells, uptake level immediately after addition
Method: • Cells to be used: PANC1 • Culture medium to be used: D-MEM (containing 10% FBS, 1% P/S)
as §2, with “cells/mL in the same manner as in Test Example 1.” for “cells/mL.”
as §3, with “^211At-AAMT-OMe, ^211At-AAMT-OEt, ^211At-AAMT-OPr, or” for “^211At-AAMT-OMe or”, “of ^211At-AAMT-OMe, ^211At-AAMT-OEt, ^211-At-AAMT-OPr,” for “of ^211At-AAMT-OMe”

[4] = tested on: human pancreatic cancer cell line (PANC1); format: in vivo, human (PANC1) in Balb/c-nu/nu mice; details: 1 MBq/0.2 mL per mouse, tail vein
From the text: The experiment was terminated 21 days after administration.

[5] = tested on: gemcitabine-resistant human pancreatic cancer cell line, PANC1 (PANC1 Gem-r); experiment: Cell viability of Gemcitabine-resistant PANC1 (PANC1 Gem-r) with gemcitabine; format: cell-based; details: gemcitabine 30 μg/mL
Method: Gemcitabine (Gem) was added to a human pancreatic cancer cell line, PANC1 at an initial concentration of 100 ng/mL. After 3 days, dead cells were removed, and gemcitabine was again added. Cells that grew like a human pancreatic cancer cell line, PANC1 even in the presence of gemcitabine were isolated and maintained for 3 months while gradually increasing the concentration of gemcitabine in a culture medium.

[6] = up to 21 days after administration

Sequence of HEK293-hLAT1 (Q01650 whole entry): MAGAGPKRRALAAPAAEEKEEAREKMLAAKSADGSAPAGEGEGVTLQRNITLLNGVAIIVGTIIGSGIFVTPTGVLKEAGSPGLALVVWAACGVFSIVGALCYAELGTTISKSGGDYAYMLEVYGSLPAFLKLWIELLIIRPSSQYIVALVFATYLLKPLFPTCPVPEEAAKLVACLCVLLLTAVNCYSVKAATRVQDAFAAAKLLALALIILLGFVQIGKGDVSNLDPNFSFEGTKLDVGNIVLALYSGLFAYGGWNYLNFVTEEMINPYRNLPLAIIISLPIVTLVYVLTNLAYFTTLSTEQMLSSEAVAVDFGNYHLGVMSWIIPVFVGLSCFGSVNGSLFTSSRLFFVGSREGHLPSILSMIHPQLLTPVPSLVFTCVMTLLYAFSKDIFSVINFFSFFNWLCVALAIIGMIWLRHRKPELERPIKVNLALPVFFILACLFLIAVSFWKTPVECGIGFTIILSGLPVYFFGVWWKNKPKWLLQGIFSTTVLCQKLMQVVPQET
Sequence of HEK293-hLAT1 (P08195 102-630 partner): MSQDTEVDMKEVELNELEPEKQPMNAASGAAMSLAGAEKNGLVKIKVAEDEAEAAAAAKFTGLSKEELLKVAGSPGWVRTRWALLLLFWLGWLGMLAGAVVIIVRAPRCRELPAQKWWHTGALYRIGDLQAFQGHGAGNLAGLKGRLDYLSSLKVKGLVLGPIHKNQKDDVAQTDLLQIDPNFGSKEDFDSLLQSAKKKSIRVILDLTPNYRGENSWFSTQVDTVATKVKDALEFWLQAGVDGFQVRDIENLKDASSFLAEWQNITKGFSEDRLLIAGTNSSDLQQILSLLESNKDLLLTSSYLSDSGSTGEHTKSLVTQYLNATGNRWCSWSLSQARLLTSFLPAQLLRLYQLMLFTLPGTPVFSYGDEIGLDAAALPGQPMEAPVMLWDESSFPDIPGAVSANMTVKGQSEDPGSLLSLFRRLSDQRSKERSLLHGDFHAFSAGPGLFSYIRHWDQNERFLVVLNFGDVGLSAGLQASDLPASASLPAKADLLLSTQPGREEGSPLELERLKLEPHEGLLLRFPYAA

## COc1ccc(C[C@@](C)(N)C(=O)O)cc1[At] [(R)-^211At-AAMT-OMe, (R)-3-astato(^211At)—O-methyl-α-methyltyrosine]
[1]
  decomposition by TLC: no decomposition

## C[C@](N)(Cc1ccc(O)cc1)C(=O)O [AMT, α-methyl tyrosine, reference compound]
HEK293-hLAT1
  inhibition of uptake of 211At-AAMT-OMe into HEK293-hLAT1 cells: significantly inhibited

## NC1(C(=O)O)CC2CCC1C2 (stereo not shown) [BCH, 2-aminobicyclo[2,2,1]heptane-2-carboxylic acid, reference compound]
HEK293-hLAT1
  inhibition of uptake of 211At-AAMT-OMe into HEK293-hLAT1 cells: significantly inhibited

## [NH2][Pt]([NH2])([Cl])[Cl] [CDDP, Cisplatin]
[2]
  cell viability: still alive even at 100 μg/mL

## COc1cc(C[C@](C)(N)C(=O)O)ccc1[At] [^211At-AAMPhe-OMe, (S)-α-methyl-4-astato(^211At)-3-methoxyphenylalanine]
[1]
  decomposition by TLC: no decomposition
[3]
  tissue uptake at 10 min: 3.77 %ID/g
  tissue uptake at 1 h: 6.38 %ID/g
PANC1 tumor
  accumulation in the tumor sites compared to 211At-AAMT: more highly accumulated in the tumor sites than ^211At-AAMT

## CCOc1ccc(C[C@](C)(N)C(=O)O)cc1[At] [^211At-AAMT-OEt, (S)-3-astato(^211At)—O-ethyl-α-methyltyrosine]
PANC1
  uptake level into cells (number of radioactivity counts/protein amount): comparable or superior
  uptake speed: comparable or superior
[1]
  decomposition by TLC: no decomposition
[4]; 21 days
  apparent toxicity: apparent toxicity induced by their administration was not observed
  lesions other than tumor at autopsy: lesions other than tumor were not observed
[4]; [6]
  mouse body weight: gently increased
  tumor growth inhibiting effect: comparable to that of the ^211At-AAMT-OMe administration group
[3]
  tissue uptake at 10 min: 4.21 %ID/g
  tissue uptake at 1 h: 3.59 %ID/g
PANC1 tumor
  accumulation in the tumor sites compared to 211At-AAMT: more highly accumulated in the tumor sites than ^211At-AAMT
  retention at tumor sites: superior retention at tumor sites compared to ^211At-AAMT

## CCCOc1ccc(C[C@](C)(N)C(=O)O)cc1[At] [^211At-AAMT-OPr, (S)-3-astato(^211At)—O-propyl-α-methyltyrosine]
PANC1
  uptake level into cells (number of radioactivity counts/protein amount): comparable or superior
  uptake speed: comparable or superior
[1]
  decomposition by TLC: no decomposition
[3]
  tissue uptake at 10 min: 5.91 %ID/g
  tissue uptake at 1 h: 9.45 %ID/g
PANC1 tumor
  accumulation in the tumor sites compared to 211At-AAMT: more highly accumulated in the tumor sites than ^211At-AAMT
  retention at tumor sites: superior retention at tumor sites compared to ^211At-AAMT
PANC1 tumor; 1 hour after administration
  tumor accumulation, ranking: most highly accumulated 1 hour after administration

## Nc1ccn([C@@H]2O[C@H](CO)[C@@H](O)C2(F)F)c(=O)n1 [gemcitabine, Gemcitabine]
[5]
  cell viability: still alive even at 30 μg/mL
